This is an account of results in US4154852A, “Novel aminobenzocycloheptenes” (Roussel Uclaf, priority 1976, dated 1979).

One data set concerns serotonine (5HT) uptake. In words: Inhibition of serotonine uptake in vitro (14C-5HT, impure brain synaptosomes). It counts as biochemical, female rat. The conditions noted are these: rat brain synaptosomes, 37° C., 5 minutes, 14 C-5HT 10^-7 M; read-out: Test in vitro I.C. 50 (inhibition of 14C-5HT uptake). As for the experimental part: (§1) The inhibition of serotonine (5HT) uptake was measured in impure synaptosomes prepared from the entire brain of a female rat 19 to 21 days old using the technique of Kannengiesser et al. [Biochemical Pharmacology,Vol. 22, (1973) p. 73]. Diverse concentrations of the products were placed in an incubator with the preparation at 37° C. for 5 minutes in the presence of 14 C-5HT at a concentration of 10^-7 M. The 50% inhibiting concentration (IC50), dose which inhibits by 50% the uptake of 14C-5HT in the synaptosomes was determined graphically and the IC50 dose for the compounds is reported in Table V.

A further data set relates to uptake of 14C-5HT. In words: Inhibition of serotonine uptake in vivo (synaptosomes prepared after administration to rats). The conditions noted are these: 5 to 20 mg/kg i.p., female rats 19 to 21 days old, brain removed after 30 minutes. More on the design: key: the activity was expressed in increasing number of + signs; ++: the activity was expressed in increasing number of + signs; +++: the activity was expressed in increasing number of + signs. How it is done: as §1
The tested products were intraperitoneally administered to groups of female rats 19 to 21 days old at doses of 5 to 20 mg/kg. After 30 minutes, the brain was removed and synaptosomes were prepared and placed in an incubator in the presence of 14 C-5HT as indicated in the previous test.

A short description of a further data set: Acute toxicity in mice. The conditions noted are these: mouse, in vivo, ip, intraperitoneal, determined 48 hours later, read-out: DL50 (dose which kills 50% of mice). As for the experimental part: The DL50 dose which kills 50% of mice after intraperitoneal administration of the tested compound was determined 48 hours later and the DL50 for the compounds is reported in Table IV.

Another data set deals with effects of L-dopa. Briefly: Potentialization of effects of L-dopa in iproniazide-pretreated mice. Format: in vivo. The conditions noted are these: Mus musculus, ip; i.p. one hour before L-dopa 100 mg/kg i.p.; iproniazide 75 mg/kg i.p. 18 hours before; male mice; read-out: ED50 (dose which potentializes by 50% the L-dopa effects). How it is done: The administration of L-dopa to mice pretreated 18 hours previously with iproniazide produced certain number of symptoms; muscular hypertonicity, hyperactivity, agitation, crying, aggressiveness, salivation and exophthalmy. The intensity of these effects is potentialized by administration of an antidepressant one hour before the administration of L-dopa. Male mice received intraperitoneally 75 mg/kg of iproniazide 18 hours before the start of the test and the tested product was intraperitoneally administered in aqueous solution in increasing doses. One hour later, L-dopa was intraperitoneally administered at a dose of 100 mg/kg and the different symptoms were observed 15 and 30 minutes later. They were evaluated on a scale of 0 to 3 for each animal and the totals for each dose were determined.

The test system of data set [1] is 5-hydroxytryptophane (5 HTP) effects. Briefly: Potentialization of 5 HTP effects (trembling) in mice. Format: in vivo. Particulars: Mus musculus, i.p. one hour before 200 mg/kg 5-HTP i.p., observed every 15 minutes for one hour, read-out: MAD (minimum active dose), potentialization of 5 HTP effects. How it is done: The administration of 5-hydroxytryptophane (5 HTP) to mice pretreated with an antidepressant induces in the mice a particular behaviour namely the appearance of trembling.
The test product was intraperitoneally administered in increasing doses one hour before the intraperitoneal administration of 200 mg/kg of 5-HTP and the symptoms were observed were noted every 15 minutes for one hour to determine the minimum active dose (MAD) of the test product.

In data set [2] the test system is effects of nialamide (monoamine oxidase inhibitor). Briefly: Potentialization of effects of monoamine oxidase inhibitor (nialamide) in mice, actimetric measurement. Format: in vivo. The conditions noted are these: nialamide 100 mg/kg i.p. 30 minutes before, 6 hours. How it is done: The administration of a monoamine oxidase inhibitor to mice induces a hyperactive movement of the animals which is able to be potentialized by an antidepressant. Using the procedure of Carlsson et al [Brain Research, Vol. 12 (1969), p. 456], a dose of 100 mg/kg of nialamide was intraperitoneally administered to mice 30 minutes before the intraperitoneal administration of the tested product and the values of actimetric measurements were recorded every 30 minutes for 6 hours. Potentialization of the effects of nialamide for the tested product was expressed in increasing number of + signs for a determined dose in mg/kg.

SMILES strings stand for the structures.

The ED50 is the midpoint of the dose-response relation.

On to `CNC1C=Cc2cc([N+](=O)[O-])ccc2CC1.Cl` (stereo not shown) [Example 1, 2-nitro-7-methylamino-6,7-dihydro [5H] benzocycloheptene hydrochloride], for which the IC50 with serotonine (5HT) uptake stood at 320 nM. Also, the “In vivo Test (relative power to inhibit the uptake of 14C-5HT)” value in the data set on uptake of 14C-5HT is “+++”. The LD50 at 48 h in “Acute toxicity in mice” amounted to 75 mg/kg. Further, the ED50 with effects of L-dopa stood at 1 mg/kg. Further, in data set [1], the minimal effective dose was 10 mg/kg. The “Potentialization of Nialamide” value in data set [2] (tested product 5 mg/kg i.p.) is listed as “+”; in data set [2] (tested product 20 mg/kg i.p.) it was “++”.

`CNC1C=Cc2cc(OC)ccc2CC1.Cl` (stereo not shown) [Example 3, 2-methoxy-7-methylamino-6,7-dihydro [5H] benzocycloheptene hydrochloride]: the IC50 with serotonine (5HT) uptake was 270 nM. Moreover, the “In vivo Test (relative power to inhibit the uptake of 14C-5HT)” value in the data set on uptake of 14C-5HT is “++”. For the same compound, the LD50 at 48 h in “Acute toxicity in mice” was determined as 50 mg/kg. Also, the ED50 in the data set with effects of L-dopa came out at 5 mg/kg. For the same compound, the “Potentialization of Nialamide” value is “+” in data set [2] (tested product 1 mg/kg i.p.) and “++” in data set [2] (tested product 5 mg/kg i.p.).

For the compound `CNC1C=Cc2cc(O)ccc2CC1.Cl` (stereo not shown) [Example 4, 7-methylamino-6,7-dihydro [5H] benzocycloheptene-2-ol hydrochloride], the IC50 with serotonine (5HT) uptake was 380 nM. Moreover, the LD50 at 48 h in “Acute toxicity in mice” is 50 mg/kg.

Regarding `CNC1C=Cc2cc(N)ccc2CC1.O=C(O)/C=C/C(=O)O` (stereo not shown) [Example 2, 2-amino-7-methylamino-6,7-dihydro [5H] benzocycloheptene fumarate], the IC50 in the data set with serotonine (5HT) uptake came out at 4000 nM. Moreover, in the data set on uptake of 14C-5HT, the “In vivo Test (relative power to inhibit the uptake of 14C-5HT)” value was “+”. Besides, the LD50 at 48 h in the data set “Acute toxicity in mice” was determined as 75 mg/kg. Moreover, the ED50 in the data set with effects of L-dopa was determined as 10 mg/kg. Also, in data set [1], the minimal effective dose turned out to be 5 mg/kg. Also, the figures for the “Potentialization of Nialamide” value in data set [2] (tested product 5 mg/kg i.p.) and in data set [2] (tested product 20 mg/kg i.p.) were “+” and “++”, respectively.
